Laboratory results as given in US10421765B2, “Tetrahydropyrido[4,3-d]pyrimidine inhibitors of ATR kinase” (Board of Regents, The University of Texas System, priority 2017, dated 2019).
Read-outs that look alike come from different tables or passages of the source.

Key:
[1] = tested on: ATR-driven phosphorylation of Chk1 kinase at Serine 345 in HT-29 colorectal adenocarcinoma cells; assay: pCHK1 cellular assay (CHK1 p-Ser345 AlphaScreen SureFire); format: cell-based; settings: 4-nitroquinoline N-oxide 12 uM, read-out: Cell IC50 (pCHK1 IC50 values)
Procedure, shortened: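 HT-29 cells seeded overnight, treated with 1:3 serially diluted compound for 90 minutes at 37° C., then 12 uM (final) 4-nitroquinoline N-oxide for 120 minutes. Lysates read for Chk1 p-Ser345 by AlphaScreen SureFire; IC50 from four-parameter logistic fit, normalized to DMSO (max) and 5 uM ATR inhibitor (min).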

[2] = biological target: ATR/ATRIP complex (Homo sapiens (Human), UniProt Q13535); assay: ATR/ATRIP enzymatic assay (Caliper-based); format: biochemical; settings: FAM-labeled RAD17 peptide, ATP; for IC50: read-out: ATR/ATRIP Enzyme IC50
Chain of ATR/ATRIP complex (Q13535 whole entry): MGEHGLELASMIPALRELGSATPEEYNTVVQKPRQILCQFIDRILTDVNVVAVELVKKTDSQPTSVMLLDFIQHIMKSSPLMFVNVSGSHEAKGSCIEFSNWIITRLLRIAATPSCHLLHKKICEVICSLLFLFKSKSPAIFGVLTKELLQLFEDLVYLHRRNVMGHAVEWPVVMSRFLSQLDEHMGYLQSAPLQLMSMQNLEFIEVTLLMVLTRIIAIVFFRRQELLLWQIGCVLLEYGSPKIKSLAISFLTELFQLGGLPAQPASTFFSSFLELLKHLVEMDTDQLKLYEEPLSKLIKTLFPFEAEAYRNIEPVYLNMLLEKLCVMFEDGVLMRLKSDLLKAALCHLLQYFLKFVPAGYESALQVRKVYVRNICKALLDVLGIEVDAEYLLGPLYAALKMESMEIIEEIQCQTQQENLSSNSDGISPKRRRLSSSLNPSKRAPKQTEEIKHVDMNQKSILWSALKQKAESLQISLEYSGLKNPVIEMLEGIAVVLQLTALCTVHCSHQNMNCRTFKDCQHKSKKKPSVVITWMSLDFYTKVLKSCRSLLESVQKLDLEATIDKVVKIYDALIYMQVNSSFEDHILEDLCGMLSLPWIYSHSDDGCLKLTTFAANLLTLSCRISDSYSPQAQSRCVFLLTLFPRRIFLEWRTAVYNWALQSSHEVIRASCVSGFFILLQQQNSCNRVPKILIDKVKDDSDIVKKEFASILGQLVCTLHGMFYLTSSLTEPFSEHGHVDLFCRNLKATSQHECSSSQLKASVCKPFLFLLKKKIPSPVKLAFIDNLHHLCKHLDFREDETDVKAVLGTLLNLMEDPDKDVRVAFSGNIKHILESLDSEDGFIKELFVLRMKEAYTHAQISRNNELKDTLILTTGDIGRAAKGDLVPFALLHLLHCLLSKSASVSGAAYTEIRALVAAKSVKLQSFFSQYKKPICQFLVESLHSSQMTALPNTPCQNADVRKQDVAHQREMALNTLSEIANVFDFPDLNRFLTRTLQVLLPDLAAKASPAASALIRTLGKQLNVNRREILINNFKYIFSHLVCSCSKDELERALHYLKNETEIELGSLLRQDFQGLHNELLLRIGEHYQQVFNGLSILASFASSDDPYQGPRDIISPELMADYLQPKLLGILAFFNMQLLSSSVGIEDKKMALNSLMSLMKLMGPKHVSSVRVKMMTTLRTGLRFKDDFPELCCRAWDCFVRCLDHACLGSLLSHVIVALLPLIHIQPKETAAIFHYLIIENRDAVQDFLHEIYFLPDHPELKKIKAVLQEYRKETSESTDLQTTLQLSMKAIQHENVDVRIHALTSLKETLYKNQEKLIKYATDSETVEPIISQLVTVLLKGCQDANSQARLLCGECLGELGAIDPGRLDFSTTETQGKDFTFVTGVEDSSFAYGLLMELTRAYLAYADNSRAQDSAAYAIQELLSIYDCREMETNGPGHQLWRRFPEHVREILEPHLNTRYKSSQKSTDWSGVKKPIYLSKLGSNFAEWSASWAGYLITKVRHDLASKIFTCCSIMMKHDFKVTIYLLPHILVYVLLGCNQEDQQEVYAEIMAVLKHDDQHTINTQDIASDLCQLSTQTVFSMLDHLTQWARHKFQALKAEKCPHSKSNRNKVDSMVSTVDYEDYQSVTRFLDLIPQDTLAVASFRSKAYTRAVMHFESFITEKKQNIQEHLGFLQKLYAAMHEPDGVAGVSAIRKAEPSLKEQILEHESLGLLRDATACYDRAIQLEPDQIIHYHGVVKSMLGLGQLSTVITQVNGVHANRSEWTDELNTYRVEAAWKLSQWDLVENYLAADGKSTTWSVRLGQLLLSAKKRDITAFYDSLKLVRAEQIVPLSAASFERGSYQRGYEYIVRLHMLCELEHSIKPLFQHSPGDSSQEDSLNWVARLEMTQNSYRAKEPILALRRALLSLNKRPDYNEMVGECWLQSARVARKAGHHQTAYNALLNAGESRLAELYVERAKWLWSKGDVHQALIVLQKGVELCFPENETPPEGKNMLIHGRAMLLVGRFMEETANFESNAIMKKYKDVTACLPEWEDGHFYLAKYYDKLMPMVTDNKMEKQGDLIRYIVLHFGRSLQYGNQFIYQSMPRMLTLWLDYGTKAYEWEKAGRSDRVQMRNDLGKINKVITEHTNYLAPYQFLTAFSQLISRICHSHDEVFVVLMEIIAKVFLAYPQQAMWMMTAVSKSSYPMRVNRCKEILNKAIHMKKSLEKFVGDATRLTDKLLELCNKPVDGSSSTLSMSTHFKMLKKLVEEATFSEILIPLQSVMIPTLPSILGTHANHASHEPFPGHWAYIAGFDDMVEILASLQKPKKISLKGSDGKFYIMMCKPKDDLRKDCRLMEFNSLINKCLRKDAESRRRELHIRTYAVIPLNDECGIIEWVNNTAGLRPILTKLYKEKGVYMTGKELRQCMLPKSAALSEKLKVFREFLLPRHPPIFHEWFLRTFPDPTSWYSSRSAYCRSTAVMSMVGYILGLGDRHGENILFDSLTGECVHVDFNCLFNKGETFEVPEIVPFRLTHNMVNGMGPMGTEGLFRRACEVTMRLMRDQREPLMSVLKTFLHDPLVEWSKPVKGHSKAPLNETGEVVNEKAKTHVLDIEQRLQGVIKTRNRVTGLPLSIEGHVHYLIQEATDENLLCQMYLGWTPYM
Chain of ATR/ATRIP complex (Q8WXE1 whole entry partner): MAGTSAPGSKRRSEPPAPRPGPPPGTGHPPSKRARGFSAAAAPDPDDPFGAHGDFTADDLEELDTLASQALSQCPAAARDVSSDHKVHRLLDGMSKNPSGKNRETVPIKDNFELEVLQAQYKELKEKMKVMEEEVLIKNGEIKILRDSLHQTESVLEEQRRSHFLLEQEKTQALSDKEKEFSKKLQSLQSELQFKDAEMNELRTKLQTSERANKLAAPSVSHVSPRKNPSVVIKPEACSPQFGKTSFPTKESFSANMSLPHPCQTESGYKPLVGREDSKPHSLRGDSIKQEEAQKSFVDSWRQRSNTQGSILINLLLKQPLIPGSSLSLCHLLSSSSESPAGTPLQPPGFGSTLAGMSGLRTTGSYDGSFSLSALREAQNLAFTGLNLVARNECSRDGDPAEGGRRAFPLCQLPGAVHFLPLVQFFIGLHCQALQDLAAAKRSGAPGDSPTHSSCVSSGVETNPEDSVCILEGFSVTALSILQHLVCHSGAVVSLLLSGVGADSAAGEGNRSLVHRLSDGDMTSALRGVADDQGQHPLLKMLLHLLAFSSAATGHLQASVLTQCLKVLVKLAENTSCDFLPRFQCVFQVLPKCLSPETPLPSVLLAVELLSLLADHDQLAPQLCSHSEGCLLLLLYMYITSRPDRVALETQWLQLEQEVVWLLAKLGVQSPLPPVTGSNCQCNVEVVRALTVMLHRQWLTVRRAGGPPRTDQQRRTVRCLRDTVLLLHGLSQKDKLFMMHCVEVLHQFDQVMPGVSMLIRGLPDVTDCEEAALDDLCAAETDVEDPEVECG
Procedure, shortened: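 FLAG-TEV-ATR/His6-ATRIP co-expressed in HEK293 and anti-FLAG purified. Compound preincubated 30 min at 28 °C with enzyme (2x solution 4 nM), then FAM-RAD17 peptide (2x solution 10 uM, 2 μM ATP) added for 6 h at 28 °C; HEPES pH 8, 10 mM MnCl2. Caliper conversion read-out, IC50 from four-parameter fit.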

[3] = Homo sapiens, HT-29, HT-29 cells

SMILES	IC50 [1, 3] [µM]	IC50 [2] [µM]	ATR/ATRIP Enzyme IC50 [2]	IC50 ([1]; HT-29 cells) [µM]
CNC(=O)[C@@H]1CCCN(c2ncnc3c2CN(c2cc(Cl)nc4[nH]ccc24)[C@H](C)C3)C1 [Example 44, (R)-1-((R)-6-(6-Chloro-1H-pyrrolo[2,3-b]pyridin-4-yl)-7-methyl-5,6,7,8-tetrahydropyrido[4,3-d]pyrimidin-4-yl)-N-methylpiperidine-3-carboxamide]	0.092	1.04	–	–
CCC1(O)CCN(c2ncnc3c2CN(c2cc(Cl)nc4[nH]ccc24)[C@H](C)C3)CC1 [Example 46, (R)-1-(6-(6-Chloro-1H-pyrrolo[2,3-b]pyridin-4-yl)-7-methyl-5,6,7,8-tetrahydropyrido[4,3-d]pyrimidin-4-yl)-4-ethylpiperidin-4-ol]	0.021	0.282	–	–
C[C@@H]1Cc2ncnc(C3CN(S(C)(=O)=O)C3)c2CN1c1cc(Cl)nc2[nH]ccc12 [Example 47, (R)-6-(6-Chloro-1H-pyrrolo[2,3-b]pyridin-4-yl)-7-methyl-4-(1-(methylsulfonyl)azetidin-3-yl)-5,6,7,8-tetrahydropyrido[4,3-d]pyrimidine]	0.03	0.287	–	–
C[C@@H]1Cc2ncnc(C3CCN(C(=O)C(C)(C)O)CC3)c2CN1c1ccnc2[nH]ccc12 [Example 49, (R)-2-Hydroxy-2-methyl-1-(4-(7-methyl-6-(1H-pyrrolo[2,3-b]pyridin-4-yl)-5,6,7,8-tetrahydropyrido[4,3-d]pyrimidin-4-yl)piperidin-1-yl)propan-1-one]	0.654	3.6	–	–
C[C@@H]1Cc2ncnc([C@H]3CCCN(S(C)(=O)=O)C3)c2CN1c1ccnc2[nH]ccc12 [Example 50b, (R)-7-methyl-4-((S)-1-(methylsulfonyl)piperidin-3-yl)-6-(1H-pyrrolo[2,3-b]pyridin-4-yl)-5,6,7,8-tetrahydropyrido[4,3-d]pyrimidine]	0.579	4.79	–	–
CS(=O)(=O)N1CCC(c2ncnc3c2CN(c2ccnc4[nH]ccc24)[C@@H](CF)C3)CC1 [Example 52a, (R)-7-(fluoromethyl)-4-(1-(methylsulfonyl)piperidin-4-yl)-6-(1H-pyrrolo[2,3-b]pyridin-4-yl)-5,6,7,8-tetrahydropyrido[4,3-d]pyrimidine]	10	30	–	–
CS(=O)(=O)N1CCC(c2ncnc3c2CN(c2ccnc4[nH]ccc24)[C@H](CF)C3)CC1 [Example 52b, (S)-7-(fluoromethyl)-4-(1-(methylsulfonyl)piperidin-4-yl)-6-(1H-pyrrolo[2,3-b]pyridin-4-yl)-5,6,7,8-tetrahydropyrido[4,3-d]pyrimidine]	0.209	0.878	–	–
CS(=O)(=O)N1CCC(c2ncnc3c2CN(c2ccnc4[nH]ccc24)[C@@H](C(F)F)C3)CC1 [Example 53a, (R)-7-(difluoromethyl)-4-(1-(methylsulfonyl)piperidin-4-yl)-6-(1H-pyrrolo[2,3-b]pyridin-4-yl)-5,6,7,8-tetrahydropyrido[4,3-d]pyrimidine]	10	–	no fit	–
CS(=O)(=O)N1CCC(c2ncnc3c2CN(c2ccnc4[nH]ccc24)[C@H](C(F)F)C3)CC1 [Example 53b]	–	2.42	–	0.485
CCOc1cc(N2Cc3c(ncnc3C3CCN(S(C)(=O)=O)CC3)C[C@H]2C)c2cc[nH]c2n1 [Example 54, (R)-6-(6-ethoxy-1H-pyrrolo[2,3-b]pyridin-4-yl)-7-methyl-4-(1-(methylsulfonyl)piperidin-4-yl)-5,6,7,8-tetrahydropyrido[4,3-d]pyrimidine]	0.01	0.123	–	–
CCOc1cc(N2Cc3c(ncnc3C3CCN(S(C)(=O)=O)CC3)C[C@@H]2CF)c2cc[nH]c2n1 [Example 55a, (R)-6-(6-ethoxy-1H-pyrrolo[2,3-b]pyridin-4-yl)-7-(fluoromethyl)-4-(1-(methylsulfonyl)piperidin-4-yl)-5,6,7,8-tetrahydropyrido[4,3-d]pyrimidine]	2.36	25	–	–
CCOc1cc(N2Cc3c(ncnc3C3CCN(S(C)(=O)=O)CC3)C[C@H]2CF)c2cc[nH]c2n1 [Example 55b, (S)-6-(6-ethoxy-1H-pyrrolo[2,3-b]pyridin-4-yl)-7-(fluoromethyl)-4-(1-(methylsulfonyl)piperidin-4-yl)-5,6,7,8-tetrahydropyrido[4,3-d]pyrimidine]	0.03	0.311	–	–
Cc1cc(N2Cc3c(ncnc3C3CCN(S(C)(=O)=O)CC3)C[C@H]2C)c2cc[nH]c2n1 [Example 56, (R)-7-methyl-6-(6-methyl-1H-pyrrolo[2,3-b]pyridin-4-yl)-4-(1-(methylsulfonyl)piperidin-4-yl)-5,6,7,8-tetrahydropyrido[4,3-d]pyrimidine]	0.052	0.773	–	–
C[C@@H]1Cc2ncnc([C@@H]3CCN(S(C)(=O)=O)C3)c2CN1c1ccnc2[nH]ccc12 [Example 57a, (R)-7-methyl-4-((R)-1-(methylsulfonyl)pyrrolidin-3-yl)-6-(1H-pyrrolo[2,3-b]pyridin-4-yl)-5,6,7,8-tetrahydropyrido[4,3-d]pyrimidine]	0.183	0.84	–	–
C[C@@H]1Cc2ncnc([C@H]3CCN(S(C)(=O)=O)C3)c2CN1c1ccnc2[nH]ccc12 [Example 57b, (R)-7-methyl-4-((S)-1-(methylsulfonyl)pyrrolidin-3-yl)-6-(1H-pyrrolo[2,3b]-pyridin-4-yl)-5,6,7,8-tetrahydropyrido[4,3-d]pyrimidine]	–	1.47	–	0.394
C[C@@H]1Cc2ncnc(N3CCC(S(C)(=N)=O)CC3)c2CN1c1cc(Cl)nc2[nH]ccc12 (stereo partly drawn) [Example 58, (1-((R)-6-(6-chloro-1H-pyrrolo[2,3-b]pyridin-4-yl)-7-methyl-5,6,7,8-tetrahydropyrido[4,3-d]pyrimidin-4-yl)piperidin-4-yl)(imino)(methyl)-λ^6-sulfanone]	0.218	0.966	–	–
C[C@@H]1Cc2ncnc(C3CCN(S(C)(=O)=O)CC3)c2CN1c1nccc2[nH]ccc12 [Example 59, (R)-7-methyl-4-(1-(methylsulfonyl)piperidin-4-yl)-6-(1H-pyrrolo[3,2-c]pyridin-4-yl)-5,6,7,8-tetrahydropyrido[4,3-d]pyrimidine]	0.555	2.65	–	–
C[C@@H]1Cc2ncnc(C3=C[C@@H]4CC[C@H](C3)N4S(C)(=O)=O)c2CN1c1cc(Cl)nc2[nH]ccc12 [Example 60, (R)-6-(6-chloro-1H-pyrrolo[2,3-b]pyridin-4-yl)-7-methyl-4-((1S,5R)-8-(methylsulfonyl)-8-azabicyclo[3.2.1]oct-2-en-3-yl)-5,6,7,8-tetra-hydropyrido[4,3-d]-pyrimidine]	0.022	0.066	–	–
C[C@@H]1Cc2ncnc(N3CCC4(CC3)NC(=O)NC4=O)c2CN1c1cc(Cl)nc2[nH]ccc12 [Example 61, (R)-8-(6-(6-chloro-1H-pyrrolo[2,3-b]pyridin-4-yl)-7-methyl-5,6,7,8-tetrahydropyrido[4,3-d]pyrimidin-4-yl)-1,3,8-triazaspiro[4.5]decane-2,4-dione]	0.57	0.514	–	–
COC(=O)[C@@H]1CCCN(c2ncnc3c2CN(c2cc(Cl)nc4[nH]ccc24)[C@H](C)C3)C1 [Example 62, Methyl (R)-1-((R)-6-(6-chloro-1H-pyrrolo[2,3-b]pyridin-4-yl)-7-methyl-5,6,7,8-tetrahydropyrido-[4,3-d]pyrimidin-4-yl)-piperidine-3-carboxylate]	0.138	0.253	–	–
COC(=O)[C@H]1CCCN(c2ncnc3c2CN(c2cc(Cl)nc4[nH]ccc24)[C@H](C)C3)C1 [Example 63, Methyl (S)-1-((R)-6-(6-chloro-1H-pyrrolo[2,3-b]pyridin-4-yl)-7-methyl-5,6,7,8-tetrahydropyrido-[4,3-d]pyrimidin-4-yl)-piperidine-3-carboxylate]	0.057	0.086	–	–
C[C@@H]1Cc2ncnc(N3CCC(NS(C)(=O)=O)CC3)c2CN1c1ccnc2[nH]ccc12 [Example 64, (R)-N-(1-(7-methyl-6-(1H-pyrrolo[2,3-b]-pyridin-4-yl)-5,6,7,8-tetrahydropyrido[4,3-d]-pyrimidin-4-yl)piperidin-4-yl)methanesulfonamide]	0.016	0.472	–	–
C[C@@H]1Cc2ncnc(N3CCCC(S(C)(=O)=O)C3)c2CN1c1cc(Cl)nc2[nH]ccc12 (stereo partly drawn) [Example 65, (7R)-6-(6-chloro-1H-pyrrolo[2,3-b]pyridin-4-yl)-7-methyl-4-(3-(methylsulfonyl)-piperidin-1-yl)-5,6,7,8-tetrahydropyrido[4,3-d]-pyrimidine]	0.008	0.159	–	–
C[C@@H]1Cc2ncnc(N3CCC(C)(O)CC3)c2CN1c1cc(Cl)nc2[nH]ccc12 [Example 66, (R)-1-(6-(6-chloro-1H-pyrrolo[2,3-b]pyridin-4-yl)-7-methyl-5,6,7,8-tetrahydropyrido[4,3-d]-pyrimidin-4-yl)-4-methyl-piperidin-4-ol]	0.025	0.584	–	–
CNC(=O)[C@H]1CCCN(c2ncnc3c2CN(c2cc(Cl)nc4[nH]ccc24)[C@H](C)C3)C1 [Example 67, (S)-1-((R)-6-(6-chloro-1H-pyrrolo[2,3-b]pyridin-4-yl)-7-methyl-5,6,7,8-tetrahydropyrido[4,3-d]-pyrimidin-4-yl)-N-methylpiperidine-3-carboxamide]	0.009	0.14	–	–
